Data reported in patent publication US9730902B2, “Polyamine transport inhibitors as novel therapeutics” (University of Central Florida Research Foundation, Inc., priority 2009, dated 2017).
Entries after “also recorded” stand apart in the source; their conditions may differ.

What was measured:
[1] = system: MiaPaca-2 pancreatic cancer; assay: MTD under DFMO treatment; assay type: cell-based
From the text: (§1) This is defined as the “MTD under DFMO treatment.”

[2] = system: L3.6pl metastatic pancreatic cancer; assay: Maximum tolerated dose (MTD) of the PTI; assay type: cell-based; conditions: L3.6pl cell line
SW620 cells = assay: cells; conditions: for Relative viability: human, 72 h
Description: The first assay implements the growth of mammalian cells in a 96 well plate format on tissue culture plates.
1.) The media contains a maximum of 2 mM aminoguanidine and a minimum of 0.25 mM aminoguanidine to prevent a cell culture artifact (i.e., degradation of native polyamines and PTI structures that contain terminal amine structures (e.g., trimer 3c) by bovine serum amine oxidases present in the cell culture media). As a general rule, aminoguanidine (AG) is not dosed at a concentration which induces 20% or more cytostasis in the cell line examined. This minimizes AG side-effects. All of the following treatments are begun 24 hours after seeding the cells.
3.) The maximum tolerated dose (MTD) of the PTI is determined by titrating it without the presence of DFMO or polyamine. The MTD is defined as the maximum concentration of the drug (e.g., PTI) that is shown to keep 100% of the cell population alive compared to the control ±10%.
as §1
6.) The combination of DFMO, polyamine, and PTI are treated concomitantly after 24 hours of growth in a 96-well tissue culture treated plate. The duration of treatment is determined by step 2 for all three reagents. The concentration of DFMO is determined in step 2, the concentration of polyamine is determined in step 4 and the concentration of PTI is determined by step 3, the MTD. Note if the MTD of the PTI is altered by the presence of DFMO then the “MTD under DFMO treatment” is used as determined in step 6. The untreated control cells, DFMO only treatment, and DFMO+polyamine treatment, must be shown on the same plate as the experimental samples with PTI to ensure that these controls are working properly.
The first assay measures the ability of the new transport inhibitors to block rescue of DFMO-treated cells by putrescine (a native polyamine).

[3] = system: L3.6pl metastatic pancreatic cancer; assay: Block of putrescine rescue of DFMO-treated cells; assay type: cell-based, human
Description: The MTD of 3c in this cell line is 5 μM. All treatments (DFMO, putrescine, and 3c) were dosed simultaneously and for a duration of 72 hours.
The MTD of 3c in this cell line is 5 μM. All treatments (DFMO, putrescine, and 3c) were dosed simultaneously and for a duration of 48 hours.

CHO-K1 cells = assay: Block of uptake of cytotoxic PAT probe Ant44 (cell rescue); assay type: cell-based, Chinese hamster; conditions: for PAT inhibition: block of uptake of Ant44 at non-toxic concentrations; for rescue of cells from Ant44: inhibitor at 0.1 uM; for toxicity of inhibitor to cells: inhibitor at 100 uM in the presence of Ant44 (0.5 uM)
Description: FIG. 6. In CHO-K1 cells, cytotoxic compound Ant44 was dosed at 0.5 μM in the presence of 2 mM aminoguanidine and either Triamide 5c or Trimer 3c at varying concentrations then incubated for 48 hours. […] Note: 5c was able to rescue the CHO cells from Ant44 but required a higher dose of 5c (1 uM). Note: […] Note that all experiments performed contained a maximum of 2 mM aminoguanidine to prevent break-down of polyamine analogues in the serum. This cell culture artifact only arises due to bovine copper-dependent serum amine oxidases which are not present in humans and are therefore not of a concern. […] This is reflective upon their low Ki values observed in L1210 cells (Phanstiel reference).
FIG. 7. In CHO-K1 cells, the PAT-selective cytotoxic agent Ant44 was dosed at 0.5 μM in the presence of Trimer 3c at varying concentrations (in nM) and incubated for 48 hours. Note that 2 mM aminoguanidine was added to the media to blockade degradation by serum amine oxidases.
In this manner, the PTI (e.g. 1 uM) dosed at completely non-toxic concentrations was able to block the uptake of the toxic Ant44 compound (Ant44 dosed at its IC50 value, 0.5 uM). […] These experiments (FIGS. 6 and 7) were done in Chinese hamster ovary cells (CHO-K1) cells.

[4] = system: MiaPaca-2 pancreatic cancer; assay: Block of putrescine rescue of DFMO-treated cells; assay type: cell-based, human
Description: The MTD under DFMO treatment of 3c in this cell line is 1 μM and as such the therapy became toxic at 2 μM. If the therapy is not toxic to normal cells, then this therapy is also valid for concentrations above 1 μM. All treatments (DFMO, putrescine, and 3c) were dosed simultaneously and for a duration of 96 hours.

L3.6pl cells = assay: Block of spermidine rescue of DFMO-treated cells; assay type: cell-based, human
Description: FIG. 3 is a chart showing the block of spermidine rescue by trimer in a does dependent fashion in L3.6pl cells. […] This minimizes AG side-effects. […] The second assay measures the ability of the new transport inhibitor (the trimer 3c) to block rescue of DFMO-treated cells by spermidine. […] As shown below, the L3.6pl cells were dosed with 5 mM DFMO, which reduced their viability during the 48 hour incubation period to 60% of the control growth without DFMO (2nd column). However, these cells were rescued by the addition of exogenous spermidine (0.5 µM, 3rd column). […] However, in the presence of the trimer (i.e., the polyamine transport inhibitor 3c) we were able to block this rescue effect of spermidine (Spd) in a dose-dependent fashion (3c: 0.1 to 5 µM). For example, 3c at 2 µM in the presence of DFMO (5 mM)+spermidine (0.5 µM) gave 60% viability (7th column). Without the presence of the trimer, spermidine rescues the cells and one observes >90% viability (3rd column). The resulting data is in Table 1 and FIG. 3.

import of putrescine = assay: Selectivity of blocking import of native polyamines; assay type: cell-based; conditions: putrescine versus spermidine and spermine, at the dosage used
Panc-1 = assay: Response of cell growth to DFMO; assay type: cell-based
SW480 = assay: Response of cell growth to DFMO; assay type: cell-based
HCT-116 = assay: Response of cell growth to DFMO; assay type: cell-based
RKO = assay: Response of cell growth to DFMO; assay type: cell-based

In the case of `NCCCCNCCCCNCc1cc(CNCCCCNCCCCN)cc(CNCCCCNCCCCN)c1` [3c, N-(4-Amino-butyl)-N′-(3,5-bis-{[4-(4-amino-butylamino)-butylamino]-methyl}-benzyl)-butane-1,4-diamine], the “MTD under DFMO treatment” value ([1]; MiaPaca-2, 96 hours) is reported as 1 µM, the “concentration at which the therapy became toxic” value ([1]; MiaPaca-2, with DFMO, 96 hours) is reported as 2000 nM and the MTD [2] is reported as 5 µM. For the same molecule, the Relative viability (SW620 cells; 0.1 uM) was 100%, the Relative viability (SW620 cells; 0.5 uM) was 75% and the “concentration from which treatment is effective” value ([3]; competing with 0.5 μM of putrescine, 48 hours) was 0.5 µM. The “concentration from which treatment is effective” value ([3]; competing with 1 μM of putrescine, 72 hours) was 1 µM, the “concentration able to protect CHO-K1 cells from Ant44” value (CHO-K1 cells; Ant44 0.5 uM, 2 mM aminoguanidine, 48 hours, further titration) was 80 nM and the PAT inhibition (CHO-K1 cells) was “potent PAT inhibitors”. The “rescue of cells from Ant44” value (CHO-K1 cells; Ant44 0.5 uM, 48 hours) was “complete rescue”, the “toxicity of inhibitor to cells” value (CHO-K1 cells) was “moderate toxicity” and the treatment effect ([4]; 0.5 μM of 3c, 0.5 μM of putrescine, DFMO, 96 hours) was “incomplete but effective treatment”. For the same molecule, the “concentration from which treatment is effective” value ([4]; competing with 0.5 μM of putrescine, with DFMO, 96 hours) was 1 µM, the “% Viability” value (L3.6pl cells; 5 mM DFMO + 0.5 uM Spd + trimer 0.1, 48 hour) was 90% and the “% Viability” value (L3.6pl cells; 5 mM DFMO + 0.5 uM Spd + trimer 0.5, 48 hour) was 88%. The “% Viability” value (L3.6pl cells; 5 mM DFMO + 0.5 uM Spd + trimer 1, 48 hour) was 73%, the “% Viability” value (L3.6pl cells; 5 mM DFMO + 0.5 uM Spd + trimer 2, 48 hour) was 60% and the “% Viability” value (L3.6pl cells; 5 mM DFMO + 0.5 uM Spd + trimer 3, 48 hour) was 53%. The “% Viability” value (L3.6pl cells; 5 mM DFMO + 0.5 uM Spd + trimer 5, 48 hour) was 45%.

For `NCCCCNCCCCNC(=O)c1cc(C(=O)NCCCCNCCCCN)cc(C(=O)NCCCCNCCCCN)c1` [5c, Benzene-1,3,5-tricarboxylic acid tris-{[4-(4-amino-butylamino)-butyl]-amide}], the “selectivity of blocking import of native polyamines” value (import of putrescine) was “selectively blocks import of putrescine; also recorded: specific for putrescine”, the “dose required to rescue the CHO cells from Ant44” value (CHO-K1 cells; Ant44 0.5 uM, 48 hours) was 1 µM and the PAT inhibition (CHO-K1 cells) was “potent PAT inhibitors”. The “rescue of cells from Ant44” value (CHO-K1 cells; Ant44 0.5 uM, 48 hours) was “unable to rescue” and the “toxicity of inhibitor to cells” value (CHO-K1 cells) was “moderate toxicity”.

`NCCCCNCCCCNCc1c2ccccc2cc2ccccc12` [Ant44, anthracen-9-ylmethyl-homospermidine conjugate, reference compound] was tested, and the “viability relative to untreated CHO-K1 cells” value (CHO-K1 cells; Ant44 0.5 uM without PAT inhibitor, 2 mM aminoguanidine, 48 hours) was 40% and the IC50 (CHO-K1 cells; cytotoxicity of Ant44, CHO-K1) was 500 nM.

Work on `NCCCCN` [Putrescine, putrescine, reference compound] yielded a viability at 1 µM (SW620 cells; Homo sapiens, SW-620, 72 h, read-out: Relative viability) of 100%.

With `NCCCCNCCCN` [spermidine, reference compound] the “% Viability” value (L3.6pl cells; 5 mM DFMO + 0.5 uM Spd, no trimer, 48 hour) was > 90% and the “% Viability” value (L3.6pl cells; 5 mM DFMO + 0.5 uM Spd, no trimer, 48 hour, listed as Spd) was 91%.

For difluoromethylornithine [DFMO], the reduction in growth (SW620 cells; DFMO (1 mM), MTS assay) was 50%, the “DFMO reduction in cell growth” value ([4]; 48, 72 and 96 hours) was “time dependent” and the “response to DFMO” value (Panc-1) was “respond to DFMO in a time dependent matter”. The “response to DFMO” value (SW480) was “respond to DFMO in a time dependent matter”, the “response to DFMO” value (HCT-116) was “respond to DFMO in a time dependent matter” and the “response to DFMO” value (RKO) was “respond to DFMO in a time dependent matter”.
